The test system of this test is Sigma receptor. The test can be described thus: Sigma receptor binding assay (3H-DTG, guinea pig brain crude membrane fraction). The note with it: for sigma receptor binding action: result in words, no value given; for IC50: inhibition of 3H-DTG binding to guinea pig brain crude membrane fraction, 25° C., 1 hour. The method, then: Sigma Receptor Binding Assay
(1) Preparation of Receptor
Ten male guinea pigs (Crj, Hartley, from Charles River Japan, Inc.) (body weight: 234 g to 260 g) were decapitated, exsanguinated and died. The brain was immediately removed, homogenized with ten volumes of 50 mM Tris-HCl (pH 7.4) using a Teflon homogenizer and was centrifuged at a rate of 50000× g at 4° C. for 20 minutes. The washing procedure was repeated once more under the same conditions, and the resulting crude membrane fraction was subjected to the assay.
The filter paper was transferred to a vial for radioactivity measurement, mixed with 5 mL of a liquid scintillation cocktail (Atomlight, from PACKARD), and the radioactivity on the filter was determined by a liquid scintillation counter (Model 1500, from PACKARD) for 2 minutes. The specific binding and the non-specific binding in the absence of the test compound were determined in the same way as above except for using 50% DMSO solution instead of the test compound and using a 100 μM Haloperidol solution instead of the test compound, respectively.
(3) Determination of Inhibition
The inhibitions of the test compound at individual concentrations were determined from the ratio of the specific binding in the presence of the test compound to the specific binding in the absence thereof. The dose-response curve was regressed according to a logit-log model in which the ratio of the specific binding in the presence of the test compound to the specific binding in the absence thereof was subjected to logit transformation and plotted against the common logarithm value of each concentration.

These results are taken from patent publication US20050107432A1, “Sigma receptor binder containing indanone derivative” (priority 2002, published 2005).

Each structure is given as a SMILES string. Counter-ions that a name gives are not always drawn.

The term IC50 denotes the concentration at which inhibition is half-maximal. A high value points to weaker potency.

Consider `COc1cc2c(cc1OC)C(=O)C(F)(CC1CCN(Cc3cccc(C)c3)CC1)C2.Cl` (centres unmarked) [Example 65, 1-(3-Methylbenzyl)-4-[(5,6-dimethoxy-2-fluoro-1-indanon)-2-yl]methylpiperidine hydrochloride], for which the “sigma receptor binding action” value was “found to have a sigma receptor binding action”.

`COc1cc2c(cc1OC)C(=O)C(F)(CC1CCN(CC3CCCCC3)CC1)C2.Cl` (centres unmarked) [Example 66, 1-Cyclohexylmethyl-4-[(5,6-dimethoxy-2-fluoro-1-indanon)-2-yl]methylpiperidine hydrochloride]: the “sigma receptor binding action” value is given as “found to have a sigma receptor binding action”.

Take `CCCOc1cc2c(cc1OCCC)C(=O)C(F)(CC1CCN(Cc3ccccc3)CC1)C2.Cl` (centres unmarked) [Example 58, 1-Benzyl-4-[[5,6-di(1-propyloxy)-2-fluoro-1-indanon]-2-yl]methylpiperidine hydrochloride]: the IC50 turned out to be 1.3 nM and the “sigma receptor binding action” value is reported as “found to have a sigma receptor binding action”. For `CCOc1cc2c(cc1OCC)C(=O)C(CC1CCN(Cc3ccc(Cl)cc3)CC1)C2` (centres unmarked) [Example 13, 1-(4-chlorobenzyl)-4-[(5,6-diethoxy-1-indanon)-2-yl]methylpiperidine hydrochloride], the IC50 was 1.6 nM.

Turning to `COc1cc2c(cc1OC)C(=O)C(CC1CCN(Cc3cccc(C)c3)CC1)C2.Cl` (centres unmarked) [Example 35, 1-(3-Methylbenzyl)-4-[(5,6-dimethoxy-1-indanon)-2-yl]methylpiperidine hydrochloride], the “sigma receptor binding action” value is “found to have a sigma receptor binding action”. For the compound `Cl.O=C1c2ccccc2CC1CC1CCN(Cc2ccccc2)CC1` (centres unmarked) [Example 27, 1-Benzyl-4-[(1-indanon)-2-yl]methylpiperidine hydrochloride], the concentration for half-maximal inhibition (IC50) amounted to 1.7 nM and the “sigma receptor binding action” value is given as “found to have a sigma receptor binding action”.

`CCOc1cc2c(cc1OCC)C(=O)C(F)(CC1CCN(Cc3cccc(F)c3)CC1)C2` (centres unmarked) [Example 41, 1-(3-fluorobenzyl)-4-[(5,6-diethoxy-2-fluoro-1-indanon)-2-yl]methylpiperidine hydrochloride] gave an IC50 of 3 nM. `CCOc1cc2c(cc1OCC)C(=O)C(F)(CC1CCN(Cc3ccc(C)cc3)CC1)C2` (centres unmarked) [Example 48, 1-(4-methylbenzyl)-4-[(5,6-diethoxy-2-fluoro-1-indanon)-2-yl]methylpiperidine hydrochloride]: the half-inhibitory concentration (IC50) was found to be 2.8 nM.

`CCOc1cc2c(cc1OCC)C(=O)C(F)(CC1CCN(Cc3ccccc3Cl)CC1)C2` (centres unmarked) [Example 43, 1-(2-chlorobenzyl)-4-[(5,6-diethoxy-2-fluoro-1-indanon)-2-yl]methylpiperidine hydrochloride] returned a half-inhibitory concentration (IC50) of 1.5 nM. Regarding `COc1cc2c(cc1OC)C(=O)C(=CC1CCN(Cc3ccccc3)CC1)C2.Cl` [Example 25, 1-Benzyl-4-[(5,6-dimethoxy-1-indanon)-2-ylidene]methylpiperidine hydrochloride], the “sigma receptor binding action” value is listed as “found to have a sigma receptor binding action”.

Compound `CCOc1cc2c(cc1OCC)C(=O)C(F)(CC1CCN(CC3CCCCCC3)CC1)C2` (centres unmarked) [Example 51, 1-cycloheptylmethyl-4-[(5,6-diethoxy-2-fluoro-1-indanon)-2-yl]methylpiperidine hydrochloride] yielded a half-maximal inhibitory concentration (IC50) of 1.1 nM. For `COc1cc2c(cc1OC)C(=O)C(F)(C1CCN(Cc3ccccc3)CC1)C2.Cl` (centres unmarked) [Example 59, 1-Benzyl-4-[(5,6-dimethoxy-2-fluoro-1-indanon)-2-yl]piperidine], the “sigma receptor binding action” value is listed as “found to have a sigma receptor binding action”. As to `CCOc1cc2c(cc1OCC)C(=O)C(Cl)(CC1CCN(Cc3ccccc3)CC1)C2.Cl` (centres unmarked) [Example 68, 1-Benzyl-4-[(5,6-diethoxy-2-chloro-1-indanon)-2-yl]methylpiperidine hydrochloride], the IC50 came to 2.6 nM and the “sigma receptor binding action” value is “found to have a sigma receptor binding action”. `CCCOc1cc2c(cc1OCCC)C(=O)C(CC1CCN(Cc3ccccc3)CC1)C2.Cl` (centres unmarked) [Example 31, 1-Benzyl-4-[[5,6-di(1-propyloxy)-1-indanon)-2-yl]methylpiperidine hydrochloride]: the “sigma receptor binding action” value is “found to have a sigma receptor binding action”.

`COc1cc2c(cc1OC)C(=O)C(CCCC1CCN(Cc3ccccc3)CC1)C2.Cl` (centres unmarked) [Example 33, 1-Benzyl-4-[3-[(5,6-dimethoxy-1-indanon)-2-yl]propyl]piperidine hydrochloride]: the IC50 is 7.6 nM and the “sigma receptor binding action” value is “found to have a sigma receptor binding action”. Regarding `COc1cc2c(cc1OC)C(=O)C(CC1CCN(CC3CCCCC3)CC1)C2.Cl` (centres unmarked) [Example 36, 1-Cyclohexylmethyl-4-[(5,6-dimethoxy-1-indanon)-2-yl]methylpiperidine hydrochloride], the “sigma receptor binding action” value is reported as “found to have a sigma receptor binding action”. On the same count and under the same terms, to `Cl.O=C1c2ccccc2CC1(F)CC1CCN(Cc2ccccc2)CC1` (centres unmarked) [Example 54, 1-Benzyl-4-[(2-fluoro-1-indanon)-2-yl]methylpiperidine hydrochloride] belongs “found to have a sigma receptor binding action”. Regarding `COc1cc2c(cc1OC)C(=O)C(F)(CC1CCN(Cc3cccc(F)c3)CC1)C2.Cl` (centres unmarked) [Example 63, 1-(3-Fluorobenzyl)-4-[(5,6-dimethoxy-2-fluoro-1-indanon)-2-yl]methylpiperidine hydrochloride], the “sigma receptor binding action” value is “found to have a sigma receptor binding action”. Still for that read-out and setting: in the case of `COc1ccc2c(c1)CC(F)(CC1CCN(Cc3ccccc3)CC1)C2=O.Cl` (centres unmarked) [Example 55, 1-Benzyl-4-[(5-methoxy-2-fluoro-1-indanon)-2-yl]methylpiperidine hydrochloride] it was “found to have a sigma receptor binding action”. For the compound `CCOc1cc2c(cc1OCC)C(=O)C(F)(CC1CCN(Cc3ccccc3)CC1)C2.Cl` (centres unmarked) [Example 57, 1-Benzyl-4-[(5,6-diethoxy-2-fluoro-1-indanon)-2-yl]methylpiperidine hydrochloride], the “sigma receptor binding action” value was “found to have a sigma receptor binding action”. On the same count and under the same terms, to `COc1cc2c(cc1OC)C(=O)C(Br)(CC1CCN(Cc3ccccc3)CC1)C2.Cl` (centres unmarked) [Example 70, 1-Benzyl-4-[(5,6-dimethoxy-2-bromo-1-indanon)-2-yl]methylpiperidine hydrochloride] belongs “found to have a sigma receptor binding action”; to `CCOc1cc2c(cc1OC)C(=O)C(Cl)(CC1CCN(Cc3ccccc3)CC1)C2.Cl` (centres unmarked) [Example 69, 1-Benzyl-4-[(5-ethoxy-6-methoxy-2-chloro-1-indanon)-2-yl]methylpiperidine hydrochloride], “found to have a sigma receptor binding action”.

For the compound `CCOc1cc2c(cc1OCC)C(=O)C(F)(CC1CCN(CC3CCCCCCC3)CC1)C2` (centres unmarked) [Example 52, 1-cyclooctylmethyl-4-[(5,6-diethoxy-2-fluoro-1-indanon)-2-yl]methylpiperidine hydrochloride], the IC50 came to 1.1 nM. For the compound `CCOc1cc2c(cc1OCC)C(=O)C(CC1CCN(Cc3ccccc3)CC1)C2.Cl` (centres unmarked) [Example 30, 1-Benzyl-4-[(5,6-diethoxy-1-indanon)-2-yl]methylpiperidine hydrochloride], the IC50 was 3.7 nM and the “sigma receptor binding action” value is given as “found to have a sigma receptor binding action”. Regarding `CCOc1cc2c(cc1OCC)C(=O)C(=CC1CCN(Cc3ccccc3)CC1)C2.Cl` [Example 26, 1-Benzyl-4-[(5,6-diethoxy-1-indanon)-2-ylidene]methylpiperidine hydrochloride], the “sigma receptor binding action” value is recorded as “found to have a sigma receptor binding action”. Regarding `CCOc1cc2c(cc1OC)C(=O)C(CC1CCN(Cc3ccccc3)CC1)C2.Cl` (centres unmarked) [Example 29, 1-Benzyl-4-[(5-ethoxy-6-methoxy-1-indanon)-2-yl]methylpiperidine hydrochloride], the “sigma receptor binding action” value was “found to have a sigma receptor binding action”. In the case of `COc1cc2c(cc1OC)C(=O)C(C)(CC1CCN(Cc3ccccc3)CC1)C2.Cl` (centres unmarked) [Example 71, 1-Benzyl-4-[(5,6-dimethoxy-2-methyl-1-indanon)-2-yl]methylpiperidine hydrochloride], the “sigma receptor binding action” value is reported as “found to have a sigma receptor binding action”. In the case of `COc1cc2c(cc1OC)C(=O)C(F)(CCCC1CCN(Cc3ccccc3)CC1)C2.Cl` (centres unmarked) [Example 61, 1-Benzyl-4-[3-[(5,6-dimethoxy-2-fluoro-1-indanon)-2-yl]propyl]piperidinepiperidine hydrochloride], the “sigma receptor binding action” value is recorded as “found to have a sigma receptor binding action”. On the same count and under the same terms, in the case of `COc1cc2c(cc1OC)C(=O)C(F)(CCC1CCN(Cc3ccccc3)CC1)C2` (centres unmarked) [Example 60, 1-Benzyl-4-[2-[(5,6-dimethoxy-2-fluoro-1-indanon)-2-yl]ethyl]piperidine] it was “found to have a sigma receptor binding action”; in that of `COc1cc2c(cc1OC)C(=O)C(CC1CCN(Cc3cccc(F)c3)CC1)C2.Cl` (centres unmarked) [Example 34, 1-(3-Fluorobenzyl)-4-[(5,6-dimethoxy-1-indanon)-2-yl]methylpiperidine hydrochloride], “found to have a sigma receptor binding action”.
